How the values were obtained:
[1] = test system: HIV mutant strain 1 (E138K/G140S/Q148H/N155H); experiment: Resistance evaluation test (HeLa-CD4 reporter), mutant strain 1; assay type: cell-based; conditions: FC=EC50 of mutant strain/EC50 of wild strain, HeLa-CD4 cells
Procedure: (§1) Serial dilutions of a test sample were prepared in a96-well microplate (50 μL/well). 2.5×10^5 cells/mL of a HeLa-CD4 cell suspension was dispensed at 100 μL/well to the plate containing the test sample. Then, an HIV virus solution (wild strain and mutant strain) was dispensed at 50 μL/well. The plate was mixed with a plate mixer and cultured for 3 days in a CO2 incubator. The culture supernatant in each well was removed by suction. A cell lysis buffer in a reporter assay kit was dispensed at 100 μL/well, and the plate was frozen in a freezer (−80° C.). The plate frozen in a freezer was thawed at room temperature, then mixed with a plate mixer, and centrifuged at 1,200 rpm for 5 minutes. The supernatant of each well was dispensed at 20 μL/well to a 96-well microplate (BLACK). A chemiluminescent reagent in the reporter assay kit was dispensed at 100 μL/well and reacted at room temperature for approximately 1 hour. Then, luminescence intensity was measured using MicroBeta TRILUX. […] FC=EC50 of mutant strain/EC50 of wild strain (Results) FC for the mutant strain 1 (E138K/G140S/Q148H/N155H) and FC for the mutant strain 2 (E92Q/E138T/G140S/Q148H) are shown in the table.

[2] = test system: HIV mutant strain 2 (E92Q/E138T/G140S/Q148H); experiment: Resistance evaluation test (HeLa-CD4 reporter), mutant strain 2; assay type: cell-based; conditions: FC=EC50 of mutant strain/EC50 of wild strain, HeLa-CD4 cells
Procedure: as §1

HIV = experiment: Anti-HIV activity (MT-4 cells, MTT); assay type: cell-based; conditions: Human immunodeficiency virus 1, MT4, 96 h, cultured 4 days
Outline: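 MT-4 cells (2.5×10^5 cells/mL) mixed with serial dilutions of test sample and HIV, cultured 4 days in CO2 incubator. MTT added for 1 h, cells lysed, absorbance read at 560 nm and 690 nm.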

[3] = test system: HIV mutant strain 3 (E92Q/E138K/G140S/Q148H); experiment: Resistance evaluation test (HeLa-CD4 reporter), mutant strain 3; assay type: cell-based; conditions: FC=EC50 of mutant strain/EC50 of wild strain, HeLa-CD4 cells
Procedure: as §1

Metabolic stability test = assay type: in vitro ADME, human; design: key: % remaining vs amount at 0 min (=100%); conditions: compound 0.5 μmol/L, human liver microsomes 0.5 mg protein/mL, NADPH, 37° C., 30 minutes; amount at 0 minutes defined as 100%
Procedure: Commercially available pooled human liver microsomes were reacted with the compound of the present invention for a certain time. A residual rate was calculated by the comparison between the reacted sample and an unreacted sample to evaluate the degree at which the compound of the present invention is metabolized in the liver. A reaction was performed (oxidative reaction) at 37° C. for 0 minutes or 30 minutes in the presence of 1 mmol/L NADPH in 0.2 mL of a buffer (50 mmol/L Tris-HCl pH 7.4, 150 mmol/L potassium chloride, 10 mmol/L magnesium chloride) containing 0.5 mg protein/mL of human liver microsomes. After the reaction, 50 μL of the reaction solution was added to 100 μL of a solution of methanol/acetonitrile=1/1 (v/v) and mixed, and the mixture was centrifuged at 3000 rpm for 15 minutes. The compound of the present invention in the centrifugation supernatant was quantified by LC/MS/MS or solid-phase extraction (SPE)/MS. The amount of the compound of the present invention remaining after the reaction was calculated with the amount of the compound at 0 minutes of the reaction defined as 100%.

[4] = molecular target: Voltage gated sodium channel (Nav 1.5 channel) (Homo sapiens, UniProt Q14524); conditions: pH 7.4
Description: For the purpose of assessing risk of arrhythmogenesis of the compound of the present invention, effects of the compound of the present invention on Na^+ current (INa), which plays an important role in the depolarization process of myocardium, was studied using HEK cells expressing Voltage gated sodium channel (Nav 1.5 channel) encoded by SCN5A gene. A cell is retained at a membrane potential of −100 mV by the whole cell patch clamp method using an automated patch clamp system (QPatch; Sophion Bioscience A/S), then INa induced by depolarization stimulation at −10 mV for 20 milliseconds, was recorded. […] From the obtained INa, an absolute value of the maximum peak current was measured based on the current value at the resting membrane potential using analysis software (QPatch Assay software; Sophion Bioscience A/S). The maximum peak current at the time of the application of the compound of the present invention with respect to the maximum peak current at the time of the application of the vehicle was further calculated to evaluate the influence of the compound of the present invention on INa.

[5] = test system: HIV mutant strain (T97A/E138T/G140S/Q148H); experiment: Resistance evaluation test (HeLa-CD4 reporter), mutant strain T97A/E138T/G140S/Q148H; assay type: cell-based; conditions: FC=EC50 of mutant strain/EC50 of wild strain; HeLa-CD4 cells
[6] = Clearance evaluation test; assay type: in vivo; conditions: rat, plasma, 1 umol/kg, rats, intravenous 1 μmol/kg
Description: Experimental Material and Method (1) Animals used: rats were used. (2) Rearing conditions: the rats were allowed to freely take solid feed and sterilized tap water. (3) Dose and grouping setting: a predetermined dose was intravenously administered. Groups were set as follows: Intravenous administration: 1 μmol/kg (n=2) (4) Preparation of dosing solution: the test sample was solubilized using a solvent of dimethyl sulfoxide/propylene glycol=1/1 and administered. (5) Administration method: the test sample was administered to the tail vein through a syringe with an injection needle. (6) Evaluation item: blood was collected over time, and the concentration of the compound of the present invention in plasma was measured using LC/MS/MS. (7) Statistical analysis: total body clearance (CLtot) and elimination half-life (t½) were calculated as to change in the concentration of the compound of the present invention in plasma by the moment analysis method.

Chain of Voltage gated sodium channel (Nav 1.5 channel) (Q14524 whole entry): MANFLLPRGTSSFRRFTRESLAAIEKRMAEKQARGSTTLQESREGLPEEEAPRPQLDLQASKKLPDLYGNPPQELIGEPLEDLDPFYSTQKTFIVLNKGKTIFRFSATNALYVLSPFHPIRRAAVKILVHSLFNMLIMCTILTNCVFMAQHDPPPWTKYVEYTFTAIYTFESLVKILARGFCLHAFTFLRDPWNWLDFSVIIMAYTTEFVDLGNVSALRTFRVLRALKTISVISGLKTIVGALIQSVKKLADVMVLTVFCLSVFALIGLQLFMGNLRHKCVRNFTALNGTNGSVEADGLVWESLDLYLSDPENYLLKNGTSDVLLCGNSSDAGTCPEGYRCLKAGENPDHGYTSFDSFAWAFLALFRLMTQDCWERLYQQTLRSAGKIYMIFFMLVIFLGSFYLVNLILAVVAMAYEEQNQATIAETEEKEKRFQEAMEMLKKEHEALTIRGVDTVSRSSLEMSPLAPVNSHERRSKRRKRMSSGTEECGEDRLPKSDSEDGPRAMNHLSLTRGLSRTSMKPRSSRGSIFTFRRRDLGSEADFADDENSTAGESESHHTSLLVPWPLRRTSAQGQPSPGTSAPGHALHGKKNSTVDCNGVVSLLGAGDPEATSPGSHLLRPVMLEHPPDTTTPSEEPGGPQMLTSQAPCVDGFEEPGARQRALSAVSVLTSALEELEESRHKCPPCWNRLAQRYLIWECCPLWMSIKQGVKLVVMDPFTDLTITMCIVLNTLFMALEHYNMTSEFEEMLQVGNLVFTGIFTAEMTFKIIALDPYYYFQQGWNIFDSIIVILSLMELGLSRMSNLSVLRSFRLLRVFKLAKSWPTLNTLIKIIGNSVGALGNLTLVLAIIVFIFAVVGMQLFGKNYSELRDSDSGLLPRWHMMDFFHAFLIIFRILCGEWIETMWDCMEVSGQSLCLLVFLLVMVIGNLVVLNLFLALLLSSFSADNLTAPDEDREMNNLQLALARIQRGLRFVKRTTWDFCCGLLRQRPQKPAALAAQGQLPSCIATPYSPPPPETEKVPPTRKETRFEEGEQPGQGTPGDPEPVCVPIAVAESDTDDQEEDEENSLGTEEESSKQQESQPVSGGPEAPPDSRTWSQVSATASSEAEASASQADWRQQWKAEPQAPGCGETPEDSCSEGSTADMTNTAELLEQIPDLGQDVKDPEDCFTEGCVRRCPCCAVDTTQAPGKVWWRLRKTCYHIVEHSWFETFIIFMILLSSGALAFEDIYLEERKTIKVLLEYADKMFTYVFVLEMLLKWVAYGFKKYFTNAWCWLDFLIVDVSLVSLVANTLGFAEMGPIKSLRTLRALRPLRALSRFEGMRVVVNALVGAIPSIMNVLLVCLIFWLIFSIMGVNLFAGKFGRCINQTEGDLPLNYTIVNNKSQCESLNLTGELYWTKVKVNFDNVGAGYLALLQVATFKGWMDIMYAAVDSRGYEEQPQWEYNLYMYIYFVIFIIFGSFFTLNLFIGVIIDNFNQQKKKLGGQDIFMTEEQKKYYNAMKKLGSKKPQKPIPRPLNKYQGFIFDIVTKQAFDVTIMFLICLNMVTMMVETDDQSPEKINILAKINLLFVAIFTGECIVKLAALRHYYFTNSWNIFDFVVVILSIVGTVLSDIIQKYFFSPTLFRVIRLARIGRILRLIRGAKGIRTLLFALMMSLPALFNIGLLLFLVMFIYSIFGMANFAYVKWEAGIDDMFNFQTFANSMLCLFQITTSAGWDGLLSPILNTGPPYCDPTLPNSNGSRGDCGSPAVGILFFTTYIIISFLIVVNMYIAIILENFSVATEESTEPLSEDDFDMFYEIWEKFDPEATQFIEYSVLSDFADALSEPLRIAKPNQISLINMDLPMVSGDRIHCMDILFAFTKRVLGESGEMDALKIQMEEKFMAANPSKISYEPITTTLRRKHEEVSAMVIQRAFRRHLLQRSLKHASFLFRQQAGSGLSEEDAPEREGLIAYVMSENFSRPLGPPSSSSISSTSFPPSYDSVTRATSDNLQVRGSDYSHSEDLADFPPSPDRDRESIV

CN1C(=O)c2c(O)c(=O)c(C(=O)NCc3ccc(F)cc3F)cn2N2CCCC[C@@H]12 [Compound I-015]
FC mutant strain 1 [1]: 51 | FC mutant strain 2 [2]: 18 | EC50 (HIV): 3.6 nM | FC for the mutant strain 3 [3]: 7.7 | residual rate (Metabolic stability test): 103 | maximum peak current (INa) with compound with respect to vehicle [4]: 92.1% | FC for the mutant strain (T97A/E138T/G140S/Q148H) [5]: 10 | half-life ([6]; read-out: elimination half-life (t½) (converted)): 12.3 h | clearance ([6]; read-out: total body clearance (CLtot)): 0.111 mL/min/kg

From patent US11649236B2, “Polycyclic carbamoylpyridone derivative” (Shionogi & Co., Ltd., priority 2018, dated 2023)
